The values below come from patent publication US9675614B2, “PRMT5 inhibitors and uses thereof” (Epizyme, Inc., priority 2012, dated 2017).

Chain of PRMT5/MEP50 (O14744 other isoform, or with tags, fused parts or gaps): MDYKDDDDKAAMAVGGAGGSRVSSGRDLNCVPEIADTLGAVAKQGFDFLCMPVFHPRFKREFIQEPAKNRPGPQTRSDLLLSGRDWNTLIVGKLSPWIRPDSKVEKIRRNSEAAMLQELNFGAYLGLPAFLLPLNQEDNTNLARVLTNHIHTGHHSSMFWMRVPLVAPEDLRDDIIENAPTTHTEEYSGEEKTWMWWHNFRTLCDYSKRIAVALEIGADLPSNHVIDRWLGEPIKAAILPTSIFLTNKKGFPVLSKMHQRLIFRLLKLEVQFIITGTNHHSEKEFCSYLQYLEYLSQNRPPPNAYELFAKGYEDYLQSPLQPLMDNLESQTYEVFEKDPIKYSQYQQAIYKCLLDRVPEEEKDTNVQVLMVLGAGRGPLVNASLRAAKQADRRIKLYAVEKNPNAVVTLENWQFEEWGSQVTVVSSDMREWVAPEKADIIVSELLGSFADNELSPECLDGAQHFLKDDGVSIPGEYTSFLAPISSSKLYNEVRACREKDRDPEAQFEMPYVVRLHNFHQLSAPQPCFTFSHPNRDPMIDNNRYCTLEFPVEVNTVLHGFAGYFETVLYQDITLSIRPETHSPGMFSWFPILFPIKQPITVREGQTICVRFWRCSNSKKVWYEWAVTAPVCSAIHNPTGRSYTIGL
Chain of PRMT5/MEP50 (Q9BQA1 other isoform, or with tags, fused parts or gaps partner): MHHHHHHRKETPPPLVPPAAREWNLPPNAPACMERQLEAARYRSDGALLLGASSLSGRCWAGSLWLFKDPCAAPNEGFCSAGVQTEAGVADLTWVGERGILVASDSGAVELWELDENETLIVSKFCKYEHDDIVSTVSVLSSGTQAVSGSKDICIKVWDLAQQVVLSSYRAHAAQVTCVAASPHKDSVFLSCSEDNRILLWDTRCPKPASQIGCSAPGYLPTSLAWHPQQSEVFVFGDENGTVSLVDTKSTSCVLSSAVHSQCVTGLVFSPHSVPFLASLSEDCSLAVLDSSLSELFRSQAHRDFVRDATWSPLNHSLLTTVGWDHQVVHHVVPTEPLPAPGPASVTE

The first assay has as its target PRMT5/MEP50 (Homo sapiens (Human), UniProt O14744). The experiment in a line: PRMT5 Biochemical Assay (PRMT5/MEP50 enzyme assay on peptide substrate, 3H-SAM Flashplate).
Details: not given
The text has this:
S-adenosylmethionine (SAM), S-adenosylhomocysteine (SAH), bicine, KCl, Tween20, dimethylsulfoxide (DMSO), bovine skin gelatin (BSG), and Tris(2-carboxyethyl)phosphine hydrochloride solution (TCEP) were purchased from Sigma-Aldrich at the highest level of purity possible. ^3H-SAM was purchase from American Radiolabeled Chemicals with a specific activity of 80 Ci/mmol. 384-well streptavidin Flashplates were purchased from PerkinElmer.
Peptide representative of human histone H4 residues 1-15 was synthesized with a C-terminal linker-affinity tag motif and a C-terminal amide cap by 21st Century Biochemicals. […] The sequence was Ac-[…][K-Biot]amide (SEQ ID NO.:3).
Full-length human MEP50 (NM_024102) clone was amplified from a human testis cDNA library incorporating a 5′ sequence encoding a 6-histidine tag (MHHHHHH) (SEQ ID NO.:5) fused directly to Arg 2 of MEP50. The amplified genes were subcloned into pENTR/D/TEV (Life Technologies) and subsequently transferred by Gateway™ attL×attR recombination to pDEST8 baculvirus expression vector (Life Technologies).
Recombinant baculovirus and Baculovirus-Infected Insect Cells (BIIC) were generated according to Bac-to-Bac kit instructions (Life Technologies) and Wasilko, 2006, respectively. Protein over-expression was accomplished by infecting exponentially growing Spodoptera frugiperda (SF9) cell culture at 1.2×10^6 cell/ml with a 5000 fold dilution of BIIC stock. Infections were carried out at 27° C. for 72 hours, harvested by centrifugation, and stored at −80° C. for purification.
Flag-PRMT5/6His-MeP50 was eluted with 300 mM Imidazole in the same buffer. […] Reference: Wasilko, D. J. and S. E. Lee: “TIPS: titerless infected-cells preservation and scale-up” Bioprocess J., 5 (2006), pp. 29-32.
General Procedure for PRMT5/MEP50 Enzyme Assays on Peptide Substrates.
The assays were all performed in a buffer consisting of 20 mM Bicine (pH=7.6), 1 mM TCEP, 0.005% BSG, and 0.002% Tween20, prepared on the day of use. Compounds in 100% DMSO (1 ul) were spotted into a polypropylene 384-well V-bottom plates (Greiner) using a Platemate Plus outfitted with a 384-channel head (Thermo Scientific). DMSO (1 ul) was added to Columns 11, 12, 23, 24, rows A-H for the maximum signal control and 1 ul of SAH, a known product and inhibitor of PRMT5/MEP50, was added to columns 11, 12, 23, 24, rows I-P for the minimum signal control. A cocktail (40 ul) containing the PRMT5/MEP50 enzyme and the peptide was added by Multidrop Combi (Thermo-Fisher). The compounds were allowed to incubate with PRMT5/MEP50 for 30 min at 25 degrees Celsius, then a cocktail (10 ul) containing ^3H-SAM was added to initiate the reaction (final volume=51 ul). The final concentrations of the components were as follows: PRMT5/MEP50 was 4 nM, ^3H-SAM was 75 nM, peptide was 40 nM, SAH in the minimum signal control wells was 100 uM, and the DMSO concentration was 1%. The assays were stopped by the addition of non-radioactive SAM (10 ul) to a final concentration of 600 uM, which dilutes the ^3H-SAM to a level where its incorporation into the peptide substrate is no longer detectable. 50 ul of the reaction in the 384-well polypropylene plate was then transferred to a 384-well Flashplate and the biotinylated peptides were allowed to bind to the streptavidin surface for at least 1 hour before being washed three times with 0.1% Tween20 in a Biotek ELx405 plate washer. The plates were then read in a PerkinElmer TopCount plate reader to measure the quantity of ^3H-labeled peptide bound to the Flashplate surface, measured as disintegrations per minute (dpm) or alternatively, referred to as counts per minute (cpm).
[formula] Where dpm=disintegrations per minute, cmpd=signal in assay well, and min and max are the respective minimum and maximum signal controls.
[formula] Where top and bottom are the normally allowed to float, but may be fixed at 100 or 0 respectively in a 3-parameter fit.
As for `O=C(NC[C@H](O)CN1CCc2ccccc2C1)Oc1ccccc1` [Compound 7], the half-maximal inhibitory concentration (IC50) (as a rule, the midpoint of a concentration-inhibition curve) was 1000 to 10000 nM.

The assay is the same for the next values; noted with them: PRMT5/MEP50 biochemical assay; read-out: Biochemical IC50.
Consider `O=C(NCC(O)CN1CCc2ccccc2C1)c1cccc(-c2ccccn2)c1` (stereo not drawn) [Compound 1, N-(3-(3,4-dihydroisoquinolin-2(1H)-yl)-2-hydroxypropyl)-3-(pyridin-2-yl)benzamide], for which the IC50 is under 100 nM.

As to `Cn1nccc1-c1cccc(C(=O)NCC(O)CN2CCc3ccccc3C2)c1` (stereo not drawn) [Compound 2, N-(3-(3,4-dihydroisoquinolin-2(1H)-yl)-2-hydroxypropyl)-3-(1-methyl-1H-pyrazol-5-yl)benzamide], the IC50 is under 100 nM.

As for `O=C(NC[C@H](O)CN1CCc2ccccc2C1)c1ccccc1` [Compound 3, (S)—N-(3-(3,4-dihydroisoquinolin-2(1H)-yl)-2-hydroxypropyl)benzamide], the IC50 is under 100 nM.

With `O=C(NC[C@@H](O)CN1CCc2ccccc2C1)c1ccccc1` [Compound 4], the IC50 was 1000 to 10000 nM.

As for `O=C(NC[C@H](O)CN1CCc2ccccc2C1)Nc1ccccc1` [Compound 5], the IC50 lay in the range of 101 to 1000 nM.

Regarding `O=C(NC[C@@H](O)CN1CCc2ccccc2C1)Nc1ccccc1` [Compound 6], the IC50 was 1000 to 10000 nM.

For the compound `O=C(NCC(O)CN1CCc2ccccc2C1)c1cccc(-c2cccnc2)c1` (stereo not drawn) [Compound 8, N-(3-(3,4-dihydroisoquinolin-2(1H)-yl)-2-hydroxypropyl)-3-(pyridin-3-yl)benzamide], the IC50 is under 100 nM.

In the case of `O=C(NCC(O)CN1CCc2ccccc2C1)c1cccc(-c2ccncc2)c1` (stereo not drawn) [Compound 9, N-(3-(3,4-dihydroisoquinolin-2(1H)-yl)-2-hydroxypropyl)-3-(pyridin-4-yl)benzamide], the IC50 is under 100 nM.

As to `O=C(NCC(O)CN1CCc2ccccc2C1)c1cccc(-c2cc[nH]n2)c1` (stereo not drawn) [Compound 10], the IC50 is under 100 nM.

As for `O=C(NC[C@@H](O)CN1CCc2ccccc2C1)Oc1ccccc1` [Compound 11, (R)-phenyl (3-(3,4-dihydroisoquinolin-2(1H)-yl)-2-hydroxypropyl)carbamate], the IC50 is under 100 nM.

Turning to `O=C(NCC(O)CN1CCc2ccccc2C1)c1ccc(-c2ccccn2)cc1` (stereo not drawn) [Compound 13, N-(3-(3,4-dihydroisoquinolin-2(1H)-yl)-2-hydroxypropyl)-4-(pyridin-2-yl)benzamide], the IC50 is under 100 nM.

In the case of `O=C(NCC(O)CN1CCc2ccccc2C1)c1cccc(N2CCOCC2)c1` (stereo not drawn) [Compound 14, N-(3-(3,4-dihydroisoquinolin-2(1H)-yl)-2-hydroxypropyl)-3-morpholinobenzamide], the IC50 is under 100 nM.

Turning to `O=C(NCC(O)CN1CCc2ccccc2C1)c1cccc(CNC2CCOCC2)c1` (stereo not drawn) [Compound 15, N-(3-(3,4-dihydroisoquinolin-2(1H)-yl)-2-hydroxypropyl)-3-(((tetrahydro-2H-pyran-4-yl)amino)methyl)benzamide], the IC50 was under 100 nM.

As to `O=C(NCC(O)CN1CCc2ccccc2C1)c1cccc(NC2CCOCC2)c1` (stereo not drawn) [Compound 16, N-(3-(3,4-dihydroisoquinolin-2(1H)-yl)-2-hydroxypropyl)-3-((tetrahydro-2H-pyran-4-yl)amino)benzamide], the IC50 is under 100 nM.

For `O=C(NC[C@@H](O)CN1CCc2ccccc2C1)c1cccc(-c2ccccn2)c1` [Compound 19], the IC50 is under 100 nM.

As to `O=C(NC[C@H](O)CN1CCc2ccccc2C1)c1cccc(-c2ccccn2)c1` [Compound 20], the IC50 was under 100 nM.

Regarding `CS(=O)(=O)Nc1cccc(C(=O)NCC(O)CN2CCc3ccccc3C2)c1` (stereo not drawn) [Compound 24], the IC50 is under 100 nM.

In the case of `CN(C)CCOc1cccc(C(=O)NCC(O)CN2CCc3ccccc3C2)c1` (stereo not drawn) [Compound 28, N-(3-(3,4-dihydroisoquinolin-2(1H)-yl)-2-hydroxypropyl)-3-(2-(dimethylamino)ethoxy)benzamide], the IC50 is under 100 nM.

As for `O=C(NCC(O)CN1CCc2ccccc2C1)c1cccc(CN2CCNCC2)c1` (stereo not drawn) [Compound 29], the IC50 is under 100 nM.

Turning to `CN1CCN(Cc2cccc(C(=O)NCC(O)CN3CCc4ccccc4C3)c2)CC1` (stereo not drawn) [Compound 30, N-(3-(3,4-dihydroisoquinolin-2(1H)-yl)-2-hydroxypropyl)-3-((4-methylpiperazin-1-yl)methyl)benzamide], the IC50 was under 100 nM.

On to `CN1CCCC1c1cccc(C(=O)NCC(O)CN2CCc3ccccc3C2)c1` (stereo not drawn) [Compound 34, N-(3-(3,4-dihydroisoquinolin-2(1H)-yl)-2-hydroxypropyl)-3-(1-methylpyrrolidin-2-yl) benzamide], for which the IC50 was under 100 nM.

For `O=C(NCC(O)CN1CCc2ccccc2C1)c1cccc(N2CCNCC2)c1` (stereo not drawn) [Compound 35, N-(3-(3,4-dihydroisoquinolin-2(1H)-yl)-2-hydroxypropyl)-3-(piperazin-1-yl)benzamide], the IC50 is under 100 nM.

For the compound `CN1CCN(c2cccc(C(=O)NCC(O)CN3CCc4ccccc4C3)c2)CC1` (stereo not drawn) [Compound 36], the IC50 was under 100 nM.

In the case of `O=C(NCC(O)CN1CCc2ccccc2C1)c1cccc(C2CCNC2)c1` (stereo not drawn) [Compound 37], the IC50 is under 100 nM.

Turning to `CN1CCC(c2cccc(C(=O)NCC(O)CN3CCc4ccccc4C3)c2)C1` (stereo not drawn) [Compound 38, N-(3-(3,4-dihydroisoquinolin-2(1H)-yl)-2-hydroxypropyl)-3-(1-methylpyrrolidin-3-yl)benzamide], the IC50 is under 100 nM.

Turning to `Cc1c(NC2CCOCC2)cccc1C(=O)NCC(O)CN1CCc2ccccc2C1` (stereo not drawn) [Compound 40, N-(3-(3,4-dihydroisoquinolin-2(1H)-yl)-2-hydroxypropyl)-2-methyl-3-((tetrahydro-2H-pyran-4-yl)amino)benzamide], the IC50 is under 100 nM.

In the case of `CCN(c1cccc(C(=O)NCC(O)CN2CCc3ccccc3C2)c1C)C1CCOCC1` (stereo not drawn) [Compound 41], the IC50 is under 100 nM.

As for `O=C(NC[C@@H](O)CN1CCc2ccccc2C1)c1cccc(NC2CCOCC2)c1` [Compound 43], the IC50 lay within 101 to 1000 nM.

For `O=C(NC[C@H](O)CN1CCc2ccccc2C1)c1cccc(NC2CCOCC2)c1` [Compound 44, (S)—N-(3-(3,4-dihydroisoquinolin-2(1H)-yl)-2-hydroxypropyl)-3-((tetrahydro-2H-pyran-4-yl)amino)benzamide], the IC50 was under 100 nM.

Consider `O=C(NCC(O)CN1CCc2ccccc2C1)c1cccc(NC2CCOC2)c1` (stereo not drawn) [Compound 45, N-(3-(3,4-dihydroisoquinolin-2(1H)-yl)-2-hydroxypropyl)-3-((tetrahydrofuran-3-yl)amino)benzamide], for which the IC50 was under 100 nM.

Turning to `O=C(NCC(O)CN1CCc2ccccc2C1)c1cncc(NC2CCOCC2)c1` (stereo not drawn) [Compound 54, N-(3-(3,4-dihydroisoquinolin-2(1H)-yl)-2-hydroxypropyl)-5-((tetrahydro-2H-pyran-4-yl)amino)nicotinamide], the IC50 is under 100 nM.

Regarding `O=C(NCC(O)CN1CCc2ccccc2C1)c1cc(NC2CCOCC2)ccn1` (stereo not drawn) [Compound 55, N-(3-(3,4-dihydroisoquinolin-2(1H)-yl)-2-hydroxypropyl)-4-((tetrahydro-2H-pyran-4-yl)amino)picolinamide], the IC50 is under 100 nM.

As for `O=C(NCC(O)CN1CCc2ccccc2C1)c1ccc(OC2CCOCC2)cc1` (stereo not drawn) [Compound 58, N-(3-(3,4-dihydroisoquinolin-2(1H)-yl)-2-hydroxypropyl)-4-((tetrahydro-2H-pyran-4-yl)oxy)benzamide], the half-inhibitory concentration (IC50) is under 100 nM.

For the compound `O=C(NCC(O)CN1CCc2ccccc2C1)c1cccc(CC2CCOCC2)c1` (stereo not drawn) [Compound 59], the half-maximal inhibitory concentration (IC50) was under 100 nM.

`O=C(NCC(O)CN1CCc2ccccc2C1)c1cccc(NC2CCCOC2)c1` (stereo not drawn) [Compound 60]: the IC50 lay in the range of 101 to 1000 nM.
